# Test results published in US9765092B2, “Tricyclic piperidine compounds” (ACTELION PHARMACEUTICALS LTD, priority 2013, dated 2017).
# Biological target: human TPH1 (Homo sapiens (Human), UniProt P17752)
# Assay: Biochemical in vitro assay using fluorescence readout (TPH1 inhibition)
# Details: full length human TPH1, 40 μM L-tryptophan, 15° C., 60 minutes, fluorescence at 540 nm; mean if determined several times
# Sequence of human TPH1 (P17752 whole entry): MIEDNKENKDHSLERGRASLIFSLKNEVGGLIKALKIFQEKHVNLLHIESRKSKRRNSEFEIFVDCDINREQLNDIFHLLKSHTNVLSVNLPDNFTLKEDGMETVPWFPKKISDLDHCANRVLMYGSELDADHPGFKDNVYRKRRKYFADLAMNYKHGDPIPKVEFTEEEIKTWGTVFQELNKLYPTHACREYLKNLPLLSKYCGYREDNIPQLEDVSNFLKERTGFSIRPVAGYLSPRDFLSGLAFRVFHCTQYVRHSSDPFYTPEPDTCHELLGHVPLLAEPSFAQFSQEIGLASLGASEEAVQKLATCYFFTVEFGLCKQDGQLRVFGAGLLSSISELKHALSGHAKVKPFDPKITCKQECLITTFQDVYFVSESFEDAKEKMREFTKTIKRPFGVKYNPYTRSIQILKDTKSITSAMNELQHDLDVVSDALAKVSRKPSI
row,SMILES,IC50 [nM]
1,"Cc1nn2c3c(nc2s1)CCN(C(=O)COc1ccc(NS(=O)(=O)C2CC2)nc1Cl)C3c1ccc(Cl)cc1F (stereo not shown) [Example 1.4.16, N-(6-Chloro-5-(2-(5-(4-chloro-2-fluorophenyl)-2-methyl-7,8-dihydro-[1,3,4]thiadiazolo[2′,3′:2,3]imidazo[4,5-c]pyridin-6(5H)-yl)-2-oxoethoxy)pyridin-2-yl)-cyclopropanesulfonamide]",7
2,"Cc1nn2c3c(nc2s1)CCN(C(=O)COc1ccc(N2CC4CC2CO4)nc1Cl)C3c1ccc(Cl)cc1F (stereo not shown) [Example 1.4.33, 2-((6-(2-Oxa-5-azabicyclo[2.2.1]heptan-5-yl)-2-chloropyridin-3-yl)oxy)-1-(5-(4-chloro-2-fluorophenyl)-2-methyl-7,8-dihydro-[1,3,4]thiadiazolo[2′,3′:2,3]imidazo[4,5-c]pyridin-6(5H)-yl)ethanone]",2
3,"Cc1nn2c3c(nc2s1)CCN(C(=O)COc1ccc(N(C)C)nc1Cl)C3c1cnc(N(C)C)s1 (stereo not shown) [Example 1.22.2, 2-((2-Chloro-6-(dimethylamino)pyridin-3-yl)oxy)-1-(5-(2-(dimethylamino)thiazol-5-yl)-2-methyl-7,8-dihydro[1,3,4]thiadiazolo[2′,3′:2,3]imidazo[4,5-c]pyridin-6(5H)-yl)ethanone]",25

# Same assay, conditions: human TPH1, fluorescence readout
row,SMILES,IC50 [nM]
1,"Cc1nc(C)c(C2c3c(nc4sc(C)nn34)CCN2C(=O)COc2ccc(N(C)S(C)(=O)=O)nc2Cl)s1 (stereo not shown) [Example 1.68.6, N-(6-chloro-5-(2-(5-(2,4-dimethylthiazol-5-yl)-2-methyl-7,8-dihydro-[1,3,4]thiadiazolo[2′,3′:2,3]imidazo[4,5-c]-pyridin-6(5H)-yl)-2-oxoethoxy)pyridin-2-yl)-N-methylmethanesulfonamide]",6
2,"CNC(=O)c1cc(F)c(C2c3c(nc4sc(C)nn34)CCN2C(=O)COc2ccc(N3CCOCC3)nc2Cl)s1 (stereo not shown) [Example 1.25.1, 5-(6-(2-((2-chloro-6-morpholinopyridin-3-yl)oxy)acetyl)-2-methyl-5,6,7,8-tetrahydro-[1,3,4]thiadiazolo[2′,3′:2,3]imidazo[4,5-c]pyridin-5-yl)-4-fluoro-N-methylthiophene-2-carboxamide]",5
3,"O=C(COc1ccc(C(F)(F)F)nc1Cl)N1CCc2nc3sccn3c2C1c1ncc(C2CC2)cc1F (stereo not shown) [Example 6.7.1, 2-((2-chloro-6-(trifluoromethyl)pyridin-3-yl)oxy)-1-(5-(5-cyclopropyl-3-fluoropyridin-2-yl)-7,8-dihydrothiazolo-[2′,3′:2,3]imidazo[4,5-c]pyridin-6(5H)-yl)ethanone]",11
4,"Cc1nn2c3c(nc2s1)CCN(C(=O)COc1ccc(NS(C)(=O)=O)nc1Cl)C3c1ccc(C)c(F)c1F (stereo not shown) [Example 1.61.2, N-(6-chloro-5-(2-(5-(2,3-difluoro-4-methylphenyl)-2-methyl-7,8-dihydro-[1,3,4]thiadiazolo[2′,3′:2,3]imidazo-[4,5-c]pyridin-6(5H)-yl)-2-oxoethoxy)pyridin-2-yl)methanesulfonamide]",34
5,"Cc1nn2c3c(nc2s1)CCN(C(=O)COc1ccc(S(N)(=O)=O)cc1)C3c1ccc(C2CC2)cc1F (stereo not shown) [Example 1.6.12, 4-(2-(5-(4-cyclopropyl-2-fluorophenyl)-2-methyl-7,8-dihydro-[1,3,4]thiadiazolo[2′,3′:2,3]imidazo[4,5-c]pyridin-6(5H)-yl)-2-oxoethoxy)benzenesulfonamide]",390
6,"O=C(COc1ccc(Cl)cc1Cl)N1CCc2nc3sccn3c2C1c1nc2ccccc2s1 (stereo not shown) [Example 6.12.3, 1-(5-(benzo[d]thiazol-2-yl)-7,8-dihydrothiazolo-[2′,3′:2,3]imidazo[4,5-c]pyridin-6(5H)-yl)-2-(2,4-dichlorophenoxy)ethanone]",20
7,"CCn1nc(C(=O)OC)cc1OCC(=O)N1CCc2nc3sc(C)nn3c2C1c1sccc1F (stereo not shown) [Example 1.23.12, Methyl 1-ethyl-5-(2-(5-(3-fluorothiophen-2-yl)-2-methyl-7,8-dihydro-[1,3,4]thiadiazolo[2′,3′:2,3]imidazo[4,5-c]pyridin-6(5H)-yl)-2-oxoethoxy)-1H-pyrazole-3-carboxylate]",265
8,"Cc1cnc(C2c3c(nc4sc(C)nn34)CCN2C(=O)COc2ccc(NS(C)(=O)=O)cc2Cl)c(F)c1 (stereo not shown) [Example 1.31.10, N-(3-chloro-4-(2-(5-(3-fluoro-5-methylpyridin-2-yl)-2-methyl-7,8-dihydro-[1,3,4]thiadiazolo[2′,3′:2,3]imidazo[4,5-c]pyridin-6(5H)-yl)-2-oxoethoxy)phenyl)methanesulfonamide]",11
9,"Cc1nn2c3c(nc2s1)CCN(C(=O)COc1ccc(C(F)(F)F)nc1Cl)C3c1ccc(C2CC2)cc1F (stereo not shown) [Example 1.6.24, 2-((2-chloro-6-(trifluoromethyl)pyridin-3-yl)oxy)-1-(5-(4-cyclopropyl-2-fluorophenyl)-2-methyl-7,8-dihydro-[1,3,4]thiadiazolo[2′,3′:2,3]imidazo[4,5-c]pyridin-6(5H)-yl)ethanone]",7
10,"Cc1nn2c3c(nc2s1)CCN(C(=O)COc1ccc(N(C)C)nc1Cl)C3c1ccc(C2CC2)cc1F (stereo not shown) [Example 1.6.22, 2-((2-chloro-6-(dimethylamino)pyridin-3-yl)oxy)-1-(5-(4-cyclopropyl-2-fluorophenyl)-2-methyl-7,8-dihydro-[1,3,4]thiadiazolo[2′,3′:2,3]imidazo[4,5-c]pyridin-6(5H)-yl)ethanone]",3
11,"Cc1nn2c3c(nc2s1)CCN(C(=O)COc1ccc(C(=O)N(C)C)nc1Cl)C3c1ccc(OC(F)F)cc1F (stereo not shown) [Example 1.54.1, 6-chloro-5-(2-(5-(4-(difluoromethoxy)-2-fluorophenyl)-2-methyl-7,8-dihydro-[1,3,4]thiadiazolo[2′,3′:2,3]imidazo[4,5-c]pyridin-6(5H)-yl)-2-oxoethoxy)-N,N-dimethylpicolinamide]",14
12,"Cc1nn2c3c(nc2s1)CCN(C(=O)COc1ccnc2c(C)c(Cl)ccc12)C3c1ccc(Cl)cc1F (stereo not shown) [Example 1.4.64, 1-(5-(4-chloro-2-fluorophenyl)-2-methyl-7,8-dihydro-[1,3,4]thiadiazolo[2′,3′:2,3]imidazo[4,5-c]pyridin-6(5H)-yl)-2-((7-chloro-8-methylquinolin-4-yl)oxy)ethan-1-one]",255
13,"Cc1nn2c3c(nc2s1)CCN(C(=O)COc1cccnc1Cl)C3c1sc(C(=O)N(C)C)cc1F (stereo not shown) [Example 1.24.5, 5-(6-(2-((2-chloropyridin-3-yl)oxy)acetyl)-2-methyl-5,6,7,8-tetrahydro-[1,3,4]thiadiazolo[2′,3′:2,3]imidazo[4,5-c]pyridin-5-yl)-4-fluoro-N,N-dimethylthiophene-2-carboxamide]",64
14,"CCOC(=O)c1csc(C2c3c(nc4sc(C)nn34)CCN2C(=O)COc2ccc(C(F)(F)F)nc2Cl)n1 (stereo not shown) [Example 1.27.2, Ethyl 2-(6-(2-((2-chloro-6-(trifluoromethyl)pyridin-3-yl)oxy)acetyl)-2-methyl-5,6,7,8-tetrahydro-[1,3,4]thiadiazolo [2′,3′:2,3]imidazo[4,5-c]pyridin-5-yl)thiazole-4-carboxylate]",500
15,"Cc1nn2c3c(nc2s1)CCN(C(=O)COc1ccc(NS(C)(=O)=O)nc1Cl)C3c1ncc(Cl)cc1F (stereo not shown) [Example 1.33.6, N-(6-chloro-5-(2-(5-(5-chloro-3-fluoropyridin-2-yl)-2-methyl-7,8-dihydro-[1,3,4]thiadiazolo[2′,3′:2,3]imidazo[4,5-c]pyridin-6(5H)-yl)-2-oxoethoxy)pyridin-2-yl)methanesulfonamide]",6
16,"Cc1nn2c3c(nc2s1)CCN(C(=O)C(C)(C)Oc1ccc(NS(C)(=O)=O)nc1Cl)C3c1ccc(Cl)cc1F (stereo not shown) [Example 1.4.56, N-(6-chloro-5-((1-(5-(4-chloro-2-fluorophenyl)-2-methyl-7,8-dihydro-[1,3,4]thiadiazolo[2′,3′:2,3]imidazo[4,5-c]pyridin-6(5H)-yl)-2-methyl-1-oxopropan-2-yl)oxy)pyridin-2-yl)methanesulfonamide]",567
17,"Cc1nn2c3c(nc2s1)CCN(C(=O)COc1ccc(N2CCOCC2)nc1Cl)C3c1cc(C(C)(C)O)cs1 (stereo not shown) [Example 1.20.1, 2-((2-chloro-6-morpholinopyridin-3-yl)oxy)-1-(5-(4-(2-hydroxypropan-2-yl)thiophen-2-yl)-2-methyl-7,8-dihydro-[1,3,4]thiadiazolo[2′,3′:2,3]imidazo[4,5-c]pyridin-6(5H)-yl)ethanone]",12
18,"CNC(=O)c1ccc(OCC(=O)N2CCc3nc4sc(C)nn4c3C2c2ncc(Cl)cc2F)c(Cl)n1 (stereo not shown) [Example 1.33.5, 6-chloro-5-(2-(5-(5-chloro-3-fluoropyridin-2-yl)-2-methyl-7,8-dihydro-[1,3,4]thiadiazolo[2′,3′:2,3]imidazo[4,5-c]pyridin-6(5H)-yl)-2-oxoethoxy)-N-methylpicolinamide]",6
19,"Cc1ncc(OCC(=O)N2CCc3nc4sc(C)nn4c3C2c2ccc(C3CC3)cc2F)c(C)n1 (stereo not shown) [Example 1.6.27, 1-(5-(4-cyclopropyl-2-fluorophenyl)-2-methyl-7,8-dihydro-[1,3,4]thiadiazolo[2′,3′:2,3]imidazo[4,5-c]pyridin-6(5H)-yl)-2-((2,4-dimethylpyrimidin-5-yl)oxy)ethanone]",161
20,"Cc1nn2c3c(nc2s1)CCN(C(=O)COc1ccc(N(C)C)nc1Cl)C3c1cc(CN(C)C)cs1 (stereo not shown) [Example 1.8.4, 2-((2-chloro-6-(dimethylamino)pyridin-3-yl)oxy)-1-(5-(4-((dimethylamino)methyl)thiophen-2-yl)-2-methyl-7,8-dihydro-[1,3,4]thiadiazolo[2′,3′:2,3]imidazo[4,5-c]pyridin-6(5H)-yl)ethanone]",106
21,"Cc1nn2c3c(nc2s1)CCN(C(=O)COc1ccc(N2CCOCC2)nc1Cl)C3c1ncccc1F (stereo not shown) [Example 1.35.1, 2-((2-chloro-6-morpholinopyridin-3-yl)oxy)-1-(5-(3-fluoropyridin-2-yl)-2-methyl-7,8-dihydro-[1,3,4]thiadiazolo [2′,3′:2,3]imidazo[4,5-c]pyridin-6(5H)-yl)ethanone]",6
22,"CCn1nc(C(=O)N(C)C)cc1OCC(=O)N1CCc2nc3sc(C)nn3c2C1c1sccc1F (stereo not shown) [Example 1.23.13, 1-ethyl-5-(2-(5-(3-fluorothiophen-2-yl)-2-methyl-7,8-dihydro-[1,3,4]thiadiazolo[2′,3′:2,3]imidazo[4,5-c]pyridin-6(5H)-yl)-2-oxoethoxy)-N,N-dimethyl-1H-pyrazole-3-carboxamide]",103
